We go through 76 molecules from PubChem BioAssay AID720570 (Broad Institute, 2013).

The source made the active and inactive calls.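 Rule for the calls: active = cell-killing curve crosses a set limit at a concentration no more than twice the top valid dose; inconclusive = flat curve with a 30 to 70% loss, or a poor fit; inactive = signal rising instead of falling, and the rest.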

This experiment has as its system TC71 Ewing sarcoma viability, CellTiter-Glo ATP, 72 h. Put plainly: cytotoxicity in EWS/Fli1-dependent TC71 cells – cell-based, luminescence, cherry-picked samples, retest, confirmation (AID 720570).
Take `C[C@@H]1CN([C@@H](C)CO)C(=O)c2cccc(NC(=O)Nc3cccc4ccccc34)c2O[C@@H]1CN(C)Cc1ccc(C(=O)Nc2ccccc2N)cc1`: the AC35 is 10.8 µM. The figure for `N#CC1=C(N)Oc2cc(N)ccc2C1c1cccc(Br)c1` (stereo unspecified) is 0.845 µM; for `COc1ccc(OC)c(-c2nnc3n2N=C(c2ccc(OC)c(OC4CCCC4)c2)CS3)c1` it is 3.81 µM; for `O=c1[nH]c(/C=C2\C=Nc3ccccc32)c(O)n1Cc1ccccc1F` it is 20.7 µM. In the case of `Nc1cc2c(cc1Br)[nH]c(=O)c1ccccc12` it was 23.3 µM; in that of `C[C@H](CO)N1C[C@H](C)[C@H](CN(C)Cc2ccc(Oc3ccccc3)cc2)Oc2ccc(NC(=O)Cn3cnnn3)cc2CC1=O`, 26.9 µM; in that of `CC1OC(OC2CC(O)C3(CO)C4C(O)CC5(C)C(C6=CC(=O)OC6)CCC5(O)C4CCC3(O)C2)C(O)C(O)C1O` (stereo unspecified), 0.173 µM.

As to `Cc1cccc(N2CCN(C3C(=O)Nc4ccccc4-n4nnnc43)CC2)c1C` (stereo unspecified), the AC35 is 13.9 µM. The figure for `O=C1NC(=O)N(Cc2ccc(F)cc2)C(=O)/C1=C\C=C\c1ccco1` is 9.09 µM; for `COc1cccc(-c2cccc(-c3nc(C(=O)NCC(F)(F)F)cc4c3[C@H](CCO)N([S@@](=O)C(C)(C)C)C4)c2)c1` it is 5.61 µM; for `CCN1C/C(=C/c2ccc(N3CCOCC3)cc2)C(=O)/C(=C/c2ccc(N3CCOCC3)cc2)C1` it is 5.92 µM. The figure for `CCCCCCCCCCCCCCCCCCNc1ccn(C2OC(COP(=O)(O)OCC3OC(n4cc(F)c(=O)[nH]c4=O)CC3O)C(O)C2O)c(=O)n1` (stereo unspecified) is 2.77 µM; for `CC(C)=CCC/C(C)=C/CN1C(=O)N(c2ccc(F)cc2)[C@H]2C[C@@H](c3ccccc3)[C@@H](C)[C@@H](C(=O)N3CCOCC3)C[C@H]21` it is 4.4 µM. In the case of `C[C@@H]1CN([C@H](C)CO)C(=O)Cc2cc(N(C)C)ccc2O[C@H]1CN(C)Cc1ccc(C(=O)Nc2ccccc2N)cc1` it was 13.6 µM; in that of `C[C@@H]1CN([C@@H](C)CO)C(=O)Cc2cc(NC(=O)Nc3ccc(C(F)(F)F)cc3)ccc2O[C@@H]1CN(C)Cc1ccc(C(=O)Nc2ccccc2N)cc1`, 10.4 µM; in that of `CC(C)CC#Cc1ccc([C@@H]2[C@@H](CO)N3CCCCN(S(=O)(=O)c4ccc(F)cc4)C[C@H]23)cc1`, 13.2 µM. In the case of `COc1ccc(NC(=O)N2CCCCN3[C@@H](CO)[C@H](c4ccc(C5=CCCCC5)cc4)[C@@H]3C2)cc1`, the AC35 is 23.3 µM. In the case of `N#C[C@H]1N[C@H](CO)[C@H]1c1ccc(C#Cc2ccc(F)cc2)cc1` it was 18.3 µM; in that of `COc1ccc(CC(N)c2csc(NC(=O)Nc3cccc(C(F)(F)F)c3)n2)cc1` (stereo unspecified), 19.1 µM; in that of `O=C(Nc1ccc(F)cc1)N1CCCCN2[C@@H](CO)[C@H](c3ccc(C4=CCCCC4)cc3)[C@@H]2C1`, 22.4 µM. The figure for `C[C@H]1CN([C@@H](C)CO)C(=O)Cc2cc(NC(=O)CCCCCC(=O)Nc3ccccc3N)ccc2O[C@H]1CN(C)Cc1ccc(Cl)c(Cl)c1` is 14.1 µM; for `C[C@@H]1CN([C@@H](C)CO)C(=O)c2cc(N(C)C)ccc2O[C@H]1CN(C)Cc1ccc(C(=O)Nc2ccccc2N)cc1` it is 22 µM; for `C[C@]12CCC3C(CCC4=CC(O)CC[C@@]43/C=N/O)C1(O)CCC2C1=CC(=O)OC1` (stereo partly specified) it is 1.82 µM.

For the molecule `O=C1NC(=O)N(Cc2ccccc2)C(=O)/C1=C\C=C\c1ccco1`, the AC35 is 10.2 µM. The figure for `C[C@@H]1CN([C@H](C)CO)C(=O)c2cc(NC(=O)CCCCCC(=O)Nc3ccccc3N)ccc2O[C@@H]1CN(C)Cc1ccc(Cl)c(Cl)c1` is 12.8 µM; for `CCc1nc(N)nc(N)c1-c1ccc(Cl)c(N=[N+]=[N-])c1` it is 3.56 µM; for `CC(C)(C)c1ccc(Oc2ccc(NC(=O)c3ccccc3C(=O)O)cn2)cc1` it is 10.3 µM. As to `CCCN1C/C(=C/c2ccc3c(c2)OCO3)C(=O)/C(=C/c2ccc3c(c2)OCO3)C1`, the AC35 is 13.6 µM.

On to `Cc1nc(N)nc(N)c1-c1ccc(Cl)c(Cl)c1`, for which the AC35 was 0.714 µM. The figure for `COc1ccccc1C(CCNCc1ccc(N(C)C)cc1)c1ccc(OC(C)C)cc1` (stereo unspecified) is 10.9 µM; for `Cc1ccc(S(=O)(=O)Nc2ccc3c(c2)C(=O)N([C@@H](C)CO)C[C@@H](C)[C@H](CN(C)Cc2ccc(C(F)(F)F)cc2)OCCCC[C@H](C)O3)cc1` it is 11.7 µM; for `CC(=O)OC1CC(OC2C(O)CC(OC3C(O)CC(OC4CCC5(C)C(CCC6C5CCC5(C)C(C7=CC(=O)OC7)CCC65O)C4)OC3C)OC2C)OC(C)C1OC1OC(CO)C(O)C(O)C1O` (stereo unspecified) it is 0.258 µM.

Regarding `C[C@@H]1CN([C@H](C)CO)C(=O)c2cc(NS(=O)(=O)c3ccc(Cl)cc3)ccc2O[C@@H]1CN(C)Cc1ccc(Cl)c(Cl)c1`, the AC35 was 21.5 µM. In the case of `CN(C)c1ccc2c(c1)[C@@H]1C[C@@H](CC(=O)NCc3ccc(Oc4ccccc4)cc3)O[C@H](CO)[C@@H]1O2`, the AC35 was 14.3 µM. The figure for `Cc1ccc(S(=O)(=O)Nc2ccc3c(c2)C(=O)N([C@H](C)CO)C[C@@H](C)[C@@H](CN(C)Cc2ccc(C(=O)Nc4ccccc4N)cc2)O3)cc1` is 11 µM. In the case of `C[C@@H]1CN([C@H](C)CO)C(=O)c2cccc(N(C)C)c2O[C@@H]1CN(C)Cc1ccc(C(=O)Nc2ccccc2N)cc1` it was 16.4 µM; in that of `COc1ccc(C2=Nn3c(nnc3-c3ccccc3OC)SC2)cc1OCC1CC1`, 6.68 µM; in that of `CN1c2ccc(-c3ccc(C#N)cc3)cc2[C@H]2[C@H](CCN2S(=O)(=O)c2cccc(F)c2)[C@@H]1CO`, 5.53 µM.

With `C[C@@H]1CN([C@H](C)CO)C(=O)Cc2cc(NC(=O)CCCCCC(=O)Nc3ccccc3N)ccc2O[C@@H]1CN(C)CC1CCCCC1`, the AC35 is 16.9 µM.

With `CC(C)(C)C(=O)Cn1ncc(Cl)c(Cl)c1=O`, the AC35 was 7.6 µM. As for `C[C@H](CO)N1C[C@H](C)[C@H](CN(C)Cc2ccc(C(=O)Nc3ccccc3N)cc2)Oc2ccc(N(C)C)cc2C1=O`, the AC35 is 11.9 µM. As for `N#CC1=C(N)Oc2cc(N)ccc2C1c1cccc(F)c1` (stereo unspecified), the AC35 was 4.98 µM.

`CN1c2ccc(-c3ccc(C#N)cc3)cc2[C@H]2[C@H](CCN2S(=O)(=O)c2cccc(F)c2)[C@H]1CO`: the AC35 was 3.77 µM. For `COCC(=O)Nc1ccc2c(c1)[C@@H]1C[C@@H](CC(=O)NCc3ccc(-c4ccccc4)cc3)O[C@@H](CO)[C@@H]1O2`, the AC35 is 12.9 µM. The figure for `Cc1cccc(/C=C(\c2nc3ccccc3[nH]2)S(=O)(=O)c2ccccc2)c1` is 9.6 µM; for `O=C(O)c1ccccc1C(=O)Nc1ccc(Oc2ccc3ccccc3c2)cc1` it is 9.26 µM; for `Cc1ccc(N2C(=O)c3cccc4c(N)ccc(c34)C2=O)c2cccnc12` it is 0.0977 µM. In the case of `C[C@@H]1CN([C@H](C)CO)S(=O)(=O)c2ccc(C#CC(C)(C)O)cc2O[C@H]1CN(C)Cc1ccc(-c2ccccc2)cc1` it was 3.05 µM; in that of `Cc1ccc(S(=O)(=O)N(C)C[C@@H]2Oc3ccc(NC(=O)CCCCCC(=O)Nc4ccccc4N)cc3CC(=O)N([C@@H](C)CO)C[C@@H]2C)cc1`, > 21 µM (inactive).

With `Oc1cccc(-c2nnc(-c3cccc(O)c3)nn2)c1`, the AC35 is 21.3 µM. The figure for `Cc1ccc(S(=O)(=O)Nc2ccc3c(c2)C(=O)N([C@H](C)CO)C[C@H](C)[C@@H](CN(C)Cc2ccc(C(F)(F)F)cc2)OCCCC[C@H](C)O3)cc1` is 12.1 µM. Regarding `C[C@@H]1CN([C@@H](C)CO)C(=O)c2cc(NS(=O)(=O)c3ccc(F)cc3)ccc2O[C@@H]1CN(C)Cc1ccc(C(=O)Nc2ccccc2N)cc1`, the AC35 is 17.5 µM. As for `CC(=O)N1CCCC(c2cc(C(=O)Nc3ccccc3)no2)C1` (stereo unspecified), the AC35 was 12.7 µM.

`COc1ccc(-c2cnc3c(NC=O)cc(-c4ccccc4OC)cn23)cc1OC`: the AC35 was 0.147 µM. The figure for `N#CC1C=Cc2c(ccc3ccccc23)N1C(=O)c1ccccc1` (stereo unspecified) is 1.45 µM; for `COc1ccc(C2=Nn3c([n+](C)c4ccccc43)SC2)cc1` it is 19.6 µM; for `O=C(O)c1ccc(N/N=C/c2ccc3c(c2)OCO3)cc1` it is 9.45 µM. Consider `C=C1C(=O)OC2C1CCC(C)C1C=CC(=O)C12C` (stereo unspecified), for which the AC35 was 13.8 µM.

With `C[C@H]1CN([C@@H](C)CO)C(=O)Cc2cc(NC(=O)CCCCCC(=O)Nc3ccccc3N)ccc2O[C@H]1CN(C)Cc1ccc(Oc2ccccc2)cc1`, the AC35 was 11.5 µM. The figure for `COC(=O)C1=C(C)N(Cc2cccc(C(F)(F)F)c2)C(=NCc2ccc(OC)cc2)NC1c1cccc(F)c1` (stereo unspecified) is 10.9 µM. Regarding `Cc1ccc(OCCNC(=O)c2cccc(S(=O)(=O)NCc3ccccc3)c2)cc1`, the AC35 is 6.35 µM. Turning to `CCCCCCCCn1c2c(c(=N)c3c1CCC3)CCCC2`, the AC35 is 4.88 µM. In the case of `C=C1C(=O)O[C@@H]2[C@H]1[C@@H](OC(=O)/C(C)=C/C)C/C(C)=C\C(=O)/C=C(\C)[C@@H]2O` it was 9.79 µM; in that of `O=C(N/N=C/c1cnc(N2CCCCC2)s1)c1ccc(C(F)(F)F)cc1`, 20.9 µM; in that of `COC(=O)c1ccccc1-c1c2ccc(=N)cc-2oc2cc(N)ccc12`, 8.14 µM. The figure for `CCOc1ccc(OCc2ccc(C(=O)NN=Cc3ccc[nH]3)cc2)cc1` is 0.504 µM; for `CN(C)c1ccc(N=Nc2nc3ccccc3n2C)cc1` it is 13.6 µM; for `CC(=O)Nc1cccc(-c2ccnc3c2CC(C)(C(=O)NCc2ccc(N(C)C)cc2)O3)c1` (stereo unspecified) it is 7.01 µM. The figure for `C[C@@H]1O[C@@H](O[C@@H]2C=C3CC[C@@H]4C(CC[C@]5(C)[C@@H](c6ccc(=O)oc6)CC[C@]45O)[C@@]3(C)CC2)[C@H](O)[C@H](O)[C@H]1O` (stereo partly specified) is 0.0374 µM; for `C[C@@H]1CN([C@H](C)CO)C(=O)c2cc(N(C)C)ccc2O[C@H]1CN(C)Cc1ccc(C(=O)Nc2ccccc2N)cc1` it is 12.5 µM. For the molecule `COc1cc2c(OC(C)=O)c3c(c(-c4ccc5c(c4)OCO5)c2cc1OC)C(=O)OC3`, the AC35 is 3.57 µM.

Consider `COc1cccc(OC)c1C(=O)Nc1cc(C)nn1-c1nc2ccccc2[nH]1`, for which the AC35 was 18.2 µM. With `C=C1C(=O)[C@@]23[C@H](O)C[C@@H]4C(C)(C)CC[C@H](O)[C@@]4(C)[C@@H]2CC[C@@H]1[C@H]3O`, the AC35 is 9.15 µM. The figure for `Cc1ccc(S(=O)(=O)Nc2ccc3c(c2)C(=O)N([C@@H](C)CO)C[C@H](C)[C@@H](CN(C)Cc2ccc(C(F)(F)F)cc2)OCCCC[C@@H](C)O3)cc1` is 11.8 µM. In the case of `C(=N\Nc1nc2ccccc2[nH]1)/c1ccccn1`, the AC35 was 4.84 µM. The figure for `O=C(O)c1ccc(N/N=C/c2ccc3nccnc3c2)cc1` is 16.3 µM.
